# Measurements: US8541588B2, “Sulfonamide derivatives” (Pfizer Limited, priority 2009, dated 2013)
# Target: T1, Nav1.7 (or SCN9A) channel; HEK cells stably transfected with hSCN9A (Homo sapiens, UniProt Q15858)
# T1 construct: expressed in transfected cells
# Experiment: Nav1.7 block, PatchXpress 7000 automated whole-cell voltage clamp, estimated IC50 (EIC50)
# Type: cell-based
# Conditions: PatchXpress platform; hSCN9A HEK cells held at V1/2 of inactivation; estimated IC50
# T1 sequence (Q15858 whole entry): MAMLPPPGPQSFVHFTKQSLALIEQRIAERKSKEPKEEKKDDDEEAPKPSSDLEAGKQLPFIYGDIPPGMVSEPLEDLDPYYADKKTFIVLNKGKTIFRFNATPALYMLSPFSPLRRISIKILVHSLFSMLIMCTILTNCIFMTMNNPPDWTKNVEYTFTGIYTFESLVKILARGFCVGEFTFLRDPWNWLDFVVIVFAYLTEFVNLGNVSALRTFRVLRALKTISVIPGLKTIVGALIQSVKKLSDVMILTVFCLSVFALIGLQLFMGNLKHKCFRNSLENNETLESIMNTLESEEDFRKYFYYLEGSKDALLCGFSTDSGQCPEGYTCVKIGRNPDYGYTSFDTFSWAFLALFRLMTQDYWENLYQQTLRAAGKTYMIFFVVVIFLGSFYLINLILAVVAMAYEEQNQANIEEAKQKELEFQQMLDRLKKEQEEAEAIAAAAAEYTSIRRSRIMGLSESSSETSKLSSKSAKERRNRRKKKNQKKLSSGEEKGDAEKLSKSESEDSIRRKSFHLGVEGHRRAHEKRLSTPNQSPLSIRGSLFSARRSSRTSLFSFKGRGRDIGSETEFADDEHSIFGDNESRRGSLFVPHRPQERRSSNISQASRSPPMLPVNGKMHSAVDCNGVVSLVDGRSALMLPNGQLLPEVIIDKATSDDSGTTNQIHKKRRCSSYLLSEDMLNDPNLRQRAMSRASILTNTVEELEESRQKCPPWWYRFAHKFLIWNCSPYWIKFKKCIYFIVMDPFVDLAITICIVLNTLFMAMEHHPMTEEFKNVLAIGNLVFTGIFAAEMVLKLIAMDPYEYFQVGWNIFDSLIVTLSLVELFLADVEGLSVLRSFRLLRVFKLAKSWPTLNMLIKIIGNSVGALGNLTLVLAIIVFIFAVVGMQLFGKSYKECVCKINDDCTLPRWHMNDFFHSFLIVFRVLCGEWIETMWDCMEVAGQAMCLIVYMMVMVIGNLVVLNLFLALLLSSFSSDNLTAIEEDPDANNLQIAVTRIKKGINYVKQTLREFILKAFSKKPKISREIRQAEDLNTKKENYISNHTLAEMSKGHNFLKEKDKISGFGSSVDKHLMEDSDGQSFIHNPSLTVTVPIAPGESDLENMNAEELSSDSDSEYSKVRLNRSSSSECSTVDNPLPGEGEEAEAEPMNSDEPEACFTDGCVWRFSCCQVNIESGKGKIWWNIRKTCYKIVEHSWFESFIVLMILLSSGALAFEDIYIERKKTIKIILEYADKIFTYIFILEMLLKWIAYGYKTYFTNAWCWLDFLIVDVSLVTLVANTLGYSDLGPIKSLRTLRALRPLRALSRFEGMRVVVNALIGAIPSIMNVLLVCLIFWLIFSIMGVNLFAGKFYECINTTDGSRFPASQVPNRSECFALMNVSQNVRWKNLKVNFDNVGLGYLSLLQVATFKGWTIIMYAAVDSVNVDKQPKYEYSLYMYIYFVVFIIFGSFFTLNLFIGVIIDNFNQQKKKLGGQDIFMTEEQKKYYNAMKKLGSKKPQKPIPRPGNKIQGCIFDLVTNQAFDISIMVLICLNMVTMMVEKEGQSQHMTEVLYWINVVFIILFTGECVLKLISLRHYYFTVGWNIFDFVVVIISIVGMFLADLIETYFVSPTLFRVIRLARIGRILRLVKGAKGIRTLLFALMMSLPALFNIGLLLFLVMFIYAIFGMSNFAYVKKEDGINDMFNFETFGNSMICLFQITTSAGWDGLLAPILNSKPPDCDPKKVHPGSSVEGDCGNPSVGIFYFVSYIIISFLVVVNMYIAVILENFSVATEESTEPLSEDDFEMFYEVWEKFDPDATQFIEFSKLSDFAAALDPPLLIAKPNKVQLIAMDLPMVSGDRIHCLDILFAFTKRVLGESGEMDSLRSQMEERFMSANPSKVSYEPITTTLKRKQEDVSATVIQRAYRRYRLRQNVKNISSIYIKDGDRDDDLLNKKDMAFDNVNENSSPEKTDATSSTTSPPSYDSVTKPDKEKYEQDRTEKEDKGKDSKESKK
row,IC50,Compound
1,30 nM,"O=S(=O)(Nc1nccs1)c1ccc(Oc2ccc(Cl)cc2-c2ccnn2-c2ccccc2)c(F)c1 [Example 227, 4-(4-chloro-2-(1-phenyl-1H-pyrazol-5-yl)phenoxy)-3-fluoro-N-(thiazol-2-yl)benzenesulfonamide]"
2,570 nM,"O=S(=O)(Nc1nccs1)c1ccc(Oc2cc(C(F)(F)F)nn2-c2cc(F)ccc2F)c(F)c1 [Example 228, 4-[2-(2,5-difluoro-phenyl)-5-trifluoromethyl-2H-pyrazol-3-yloxy]-3-fluoro-N-thiazol-2-yl-benzenesulfonamide]"
3,120 nM,"O=S(=O)(Nc1nccs1)c1ccc(Oc2cc(C(F)(F)F)nn2-c2ccccc2)c(F)c1 [Example 229, 3-fluoro-4-(2-phenyl-5-trifluoromethyl-2H-pyrazol-3-yloxy)-N-thiazol-2-yl-benzenesulfonamide]"
4,710 nM,"O=S(=O)(Nc1nccs1)c1ccc(Oc2cc(C(F)(F)F)nn2-c2ccccc2F)c(F)c1 [Example 230, 3-fluoro-4-[2-(2-fluoro-phenyl)-5-trifluoromethyl-2H-pyrazol-3-yloxy]-N-thiazol-2-yl-benzenesulfonamide]"
5,470 nM,"Cc1cc(Oc2ccc(S(=O)(=O)Nc3nccs3)cc2F)n(-c2ccccc2)n1 [Example 231, 3-fluoro-4-(5-methyl-2-phenyl-2H-pyrazol-3-yloxy)-N-thiazol-2-yl-benzenesulfonamide]"
6,1870 nM,"O=S(=O)(Nc1nccs1)c1ccc(Oc2ccn(Cc3ccc(Cl)cc3)n2)c(F)c1 [Example 232, 4-[1-(4-chloro-benzyl)-1H-pyrazol-3-yloxy]-3-fluoro-N-thiazol-2-yl-benzenesulfonamide]"
7,3490 nM,"Cn1cc(-c2ccccc2)c(Oc2ccc(S(=O)(=O)Nc3nccs3)cc2F)n1 [Example 233, 3-fluoro-4-(1-methyl-4-phenyl-1H-pyrazol-3-yloxy)-N-(thiazol-2-yl)benzenesulfonamide]"
8,90 nM,"COCc1ccc(Oc2ccc(S(=O)(=O)Nc3nccs3)cc2F)c(-c2ccnn2C)c1 [Example 234, 3-fluoro-4-(4-(methoxymethyl)-2-(1-methyl-1H-pyrazol-5-yl)phenoxy)-N-(thiazol-2-yl)benzenesulfonamide]"
9,760 nM,"O=S(=O)(Nc1nccs1)c1ccc(Oc2cnn(Cc3ccc(Cl)cc3)c2)c(F)c1 [Example 235, 4-(1-(4-chlorobenzyl)-1H-pyrazol-4-yloxy)-3-fluoro-N-(thiazol-2-yl)benzenesulfonamide]"
10,13900 nM,"O=S(=O)(Nc1nccs1)c1ccc(Oc2ncncc2-c2ccccc2)c(F)c1 [Example 236, 3-fluoro-4-(5-phenylpyrimidin-4-yloxy)-N-(thiazol-2-yl)benzenesulfonamide]"
11,210 nM,"O=S(=O)(Nc1nccs1)c1ccc(Oc2ccc(F)cc2-c2ccnn2CCO)c(F)c1 [Example 237, 3-fluoro-4-{4-fluoro-2-[1-(2-hydroxyethyl)-1H-pyrazol-5-yl]phenoxy}-N-1,3-thiazol-2-ylbenzenesulfonamide]"
12,2210 nM,"O=C(O)Cn1nccc1-c1cc(F)ccc1Oc1ccc(S(=O)(=O)Nc2nccs2)cc1F [Example 238, 2-(5-(5-fluoro-2-(2-fluoro-4-(N-thiazol-2-ylsulfamoyl)phenoxy)phenyl)-1H-pyrazol-1-yl)acetic acid]"
13,1900 nM,"CN(C)C(=O)Cn1nccc1-c1cc(F)ccc1Oc1ccc(S(=O)(=O)Nc2nccs2)cc1F [Example 239, 2-(5-(5-fluoro-2-(2-fluoro-4-(N-thiazol-2-ylsulfamoyl)phenoxy)phenyl)-1H-pyrazol-1-yl)-N,N-dimethylacetamide]"
14,1980 nM,"CC(C)(C)n1nc(Cc2ccc(Cl)cc2)cc1Oc1ccc(S(=O)(=O)Nc2nccs2)cc1F [Example 240, 4-[2-tert-butyl-5-(4-chloro-benzyl)-2H-pyrazol-3-yloxy]-3-fluoro-N-thiazol-2-yl-benzenesulfonamide]"
15,1470 nM,"Cn1nc(Cc2ccc(Cl)cc2)cc1Oc1ccc(S(=O)(=O)Nc2nccs2)cc1F [Example 241, 4-[5-(4-chloro-benzyl)-2-methyl-2H-pyrazol-3-yloxy]-3-fluoro-N-thiazol-2-yl-benzenesulfonamide]"
16,120 nM,"O=S(=O)(Nc1nccs1)c1ccc(Oc2ccccc2-c2ccccc2)c(F)c1 [Example 242, 4-(biphenyl-2-yloxy)-3-fluoro-N-thiazol-2-yl-benzenesulfonamide]"
17,3860 nM,"O=S(=O)(Nc1nccs1)c1ccc(Oc2cc(Cc3ccc(Cl)cc3)n[nH]2)c(F)c1 [Example 243, 4-(3-(4-chlorobenzyl)-1H-pyrazol-5-yloxy)-3-fluoro-N-(thiazol-2-yl)benzenesulfonamide]"
18,1790 nM,"Cc1c(Cl)ccc(Oc2ccc(S(=O)(=O)Nc3nccs3)cc2F)c1-c1nnco1 [Example 244, 4-(4-chloro-3-methyl-2-[1,3,4]oxadiazol-2-yl-phenoxy)-3-fluoro-N-thiazol-2-yl-benzenesulfonamide]"
19,1040 nM,"CC(C)(C)n1nc(C(F)(F)F)cc1-c1ccc(Oc2ccc(S(=O)(=O)Nc3nccs3)cc2F)cc1 [Example 245, 4-[4-(2-tert-butyl-5-trifluoromethyl-2H-pyrazol-3-yl)-phenoxy]-3-fluoro-N-thiazol-2-yl-benzenesulfonamide]"

row,IC50,Compound
1,3760 nM,"O=S(=O)(Nc1nccs1)c1ccc(Oc2ccc(-c3cc(C(F)(F)F)n[nH]3)cc2)c(F)c1 [Example 246, 3-fluoro-N-(thiazol-2-yl)-4-(4-(3-(trifluoromethyl)-1H-pyrazol-5-yl)phenoxy)benzenesulfonamide]"
2,2950 nM,"O=S(=O)(Nc1nccs1)c1ccc(Oc2ccc(-c3ccccc3)cc2)c(F)c1 [Example 247, 4-(biphenyl-4-yloxy)-3-fluoro-N-thiazol-2-yl-benzenesulfonamide]"
3,2780 nM,"Cc1cc(C)n(-c2ccc(Oc3ccc(S(=O)(=O)Nc4nccs4)cc3F)cc2)n1 [Example 248, 4-[4-(3,5-dimethyl-pyrazol-1-yl)-phenoxy]-3-fluoro-N-thiazol-2-yl-benzenesulfonamide]"
4,2400 nM,"NC(=O)c1cc(S(=O)(=O)Nc2nccs2)ccc1Oc1cnn(Cc2ccc(Cl)cc2)c1 [Example 249, 2-(1-(4-chlorobenzyl)-1H-pyrazol-4-yloxy)-5-(N-thiazol-2-ylsulfamoyl)benzamide]"
5,1850 nM,"NC(=O)c1cc(S(=O)(=O)Nc2nccs2)ccc1Oc1ccccc1-c1ccccc1 [Example 250, 2-(biphenyl-2-yloxy)-5-(N-thiazol-2-ylsulfamoyl)benzamide]"
6,2540 nM,"O=S(=O)(Nc1nncs1)c1ccc(Oc2ccccc2-c2ccccc2)c(F)c1 [Example 251, 4-(biphenyl-2-yloxy)-3-fluoro-N-(1,3,4-thiadiazol-2-yl)benzenesulfonamide]"
7,24500 nM,"Cc1nn(Cc2ccccc2)cc1-c1ccccc1Oc1ccc(S(=O)(=O)Nc2ncns2)cc1F [Example 252, 4-(2-(1-benzyl-3-methyl-1H-pyrazol-4-yl)phenoxy)-3-fluoro-N-(1,2,4-thiadiazol-5-yl)benzenesulfonamide]"
8,630 nM,"O=S(=O)(Nc1ncns1)c1ccc(Oc2cc(C(F)(F)F)nn2-c2cc(F)ccc2F)c(F)c1 [Example 253, 4-[2-(2,5-difluoro-phenyl)-5-trifluoromethyl-2H-pyrazol-3-yloxy]-3-fluoro-N-1,2,4-thiadiazol-5-yl-benzenesulfonamide]"
9,340 nM,"O=S(=O)(Nc1ncns1)c1ccc(Oc2cc(C(F)(F)F)nn2-c2ccccc2)c(F)c1 [Example 254, 3-fluoro-4-(2-phenyl-5-trifluoromethyl-2H-pyrazol-3-yloxy)-N-1,2,4-thiadiazol-5-yl-benzenesulfonamide]"
10,490 nM,"O=S(=O)(Nc1ncns1)c1ccc(Oc2cc(C(F)(F)F)nn2-c2ccccc2F)c(F)c1 [Example 255, 3-fluoro-4-[2-(2-fluoro-phenyl)-5-trifluoromethyl-2H-pyrazol-3-yloxy]-N-1,2,4-thiadiazol-5-yl-benzenesulfonamide]"
11,220 nM,"Cc1cc(S(=O)(=O)Nc2ncns2)ccc1Oc1ccccc1-c1ccccc1 [Example 256, 4-(biphenyl-2-yloxy)-3-methyl-N-1,2,4-thiadiazol-5-ylbenzenesulfonamide]"
12,2200 nM,"Cc1cc(S(=O)(=O)Nc2ncns2)ccc1Oc1ccn(Cc2ccc(Cl)cc2)n1 [Example 257, 4-{[1-(4-chlorobenzyl)-1H-pyrazol-3-yl]oxy}-3-methyl-N-1,2,4-thiadiazol-5-ylbenzenesulfonamide]"
13,1020 nM,"Cc1cc(S(=O)(=O)Nc2nccs2)ccc1Oc1ccccc1-c1ccccc1 [Example 258, 4-(biphenyl-2-yloxy)-3-methyl-N-1,3-thiazol-2-ylbenzenesulfonamide]"
14,16500 nM,"COc1cc(S(=O)(=O)Nc2ncns2)ccc1Oc1ccn(Cc2ccc(Cl)cc2)n1 [Example 259, 4-{[1-(4-chlorobenzyl)-1H-pyrazol-3-yl]oxy}-3-methoxy-N-1,2,4-thiadiazol-5-ylbenzenesulfonamide]"
15,15900 nM,"O=S(=O)(Nc1ncns1)c1ccc(Oc2ccccc2-c2ccccc2)cc1C(F)(F)F [Example 260, 4-(biphenyl-2-yloxy)-N-1,2,4-thiadiazol-5-yl-2-(trifluoromethyl)benzenesulfonamide]"
16,470 nM,"Cc1cc(Oc2ccccc2-c2ccccc2)ccc1S(=O)(=O)Nc1ncns1 [Example 261, 4-(biphenyl-2-yloxy)-2-methyl-N-1,2,4-thiadiazol-5-ylbenzenesulfonamide]"
17,1320 nM,"COc1cc(S(=O)(=O)Nc2ncns2)ccc1Oc1ccccc1-c1ccccc1 [Example 262, 4-(biphenyl-2-yloxy)-3-methoxy-N-1,2,4-thiadiazol-5-ylbenzenesulfonamide]"
18,1440 nM,"O=S(=O)(Nc1ncns1)c1ccc(Oc2ccccc2-c2ccccc2)cc1Cl [Example 263, 4-(biphenyl-2-yloxy)-2-chloro-N-1,2,4-thiadiazol-5-ylbenzenesulfonamide]"
19,2380 nM,"O=S(=O)(Nc1ncns1)c1cc(F)c(Oc2ccccc2-c2ccccc2)c(F)c1 [Example 264, 4-(biphenyl-2-yloxy)-3,5-difluoro-N-1,2,4-thiadiazol-5-ylbenzenesulfonamide]"
